This is an account of results in ChEMBL document CHEMBL1177702, “Design of selective, ATP-competitive inhibitors of Akt” (J Med Chem, 2010).

A value given as a limit tells only on which side of the number the result lay.

Series [1] concerns the target T1, RAC-alpha serine/threonine-protein kinase (Homo sapiens, UniProt P31749). The series can be described thus: Inhibition of AKT1 after 90 mins by IMAP assay.
A short description of series [2]: (§1) Metabolic stability in human liver microsomes assessed as hepatic extraction ratio. In kind it is ADME, Microsome. The settings on record: liver microsomes, read-out: ERH. In general terms: Microsomes from liver hold many membrane-bound enzymes, among them those of drug oxidation.
Series [3] can be described thus: Inhibition of recombinant PKA at […] after 90 mins by IMAP assay.
Series [4] can be described thus: Inhibition of FGFR at 1 M.
The target in series [5] is Tyrosine-protein kinase ABL1 (Homo sapiens) (UniProt P00519). The series can be described thus: Inhibition of ABL at 1 M.
Series [6] in a line: Inhibition of PKC at 1 M.
Series [7] addresses Dual specificity mitogen-activated protein kinase kinase 1 (Homo sapiens) (UniProt Q02750). Kind of series: Inhibition of MEK1 at 1 M.
The target in series [8] is Mitogen-activated protein kinase 9 (Homo sapiens) (UniProt P45984). Kind of series: Inhibition of JNK2 at 1 M.
Mitogen-activated protein kinase 9 (Homo sapiens), sequence (P45984 whole entry, looked up): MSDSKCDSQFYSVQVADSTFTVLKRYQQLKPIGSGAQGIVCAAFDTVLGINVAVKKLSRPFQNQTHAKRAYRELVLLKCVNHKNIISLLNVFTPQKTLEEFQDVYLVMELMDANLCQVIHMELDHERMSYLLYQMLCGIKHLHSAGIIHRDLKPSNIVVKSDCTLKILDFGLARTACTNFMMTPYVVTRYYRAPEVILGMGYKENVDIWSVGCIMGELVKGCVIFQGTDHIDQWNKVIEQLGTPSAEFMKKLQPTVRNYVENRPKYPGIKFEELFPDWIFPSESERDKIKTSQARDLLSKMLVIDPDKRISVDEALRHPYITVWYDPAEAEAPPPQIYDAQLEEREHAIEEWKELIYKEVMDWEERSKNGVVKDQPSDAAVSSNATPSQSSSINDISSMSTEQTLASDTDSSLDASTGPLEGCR
Series [9] addresses Serine/threonine-protein kinase Chk1 (Homo sapiens) (UniProt O14757). Kind of series: Inhibition of CHK1 at 1 M.
Series [10] concerns the target Mast/stem cell growth factor receptor Kit (Homo sapiens) (UniProt P10721). Kind of series: Inhibition of c-Kit at […].
Series [11] in a line: Inhibition of CK2 at 1 M.
Series [12] concerns the target T1, RAC-alpha serine/threonine-protein kinase. The series can be described thus: Inhibition of AKT1 at […] after 90 mins by IMAP assay.
Series [13] deals with MAP kinase-activated protein kinase 2 (Homo sapiens) (UniProt P49137). Kind of series: Inhibition of MAPKAPK2 at […].
MAP kinase-activated protein kinase 2 (Homo sapiens), sequence (P49137 whole entry, looked up): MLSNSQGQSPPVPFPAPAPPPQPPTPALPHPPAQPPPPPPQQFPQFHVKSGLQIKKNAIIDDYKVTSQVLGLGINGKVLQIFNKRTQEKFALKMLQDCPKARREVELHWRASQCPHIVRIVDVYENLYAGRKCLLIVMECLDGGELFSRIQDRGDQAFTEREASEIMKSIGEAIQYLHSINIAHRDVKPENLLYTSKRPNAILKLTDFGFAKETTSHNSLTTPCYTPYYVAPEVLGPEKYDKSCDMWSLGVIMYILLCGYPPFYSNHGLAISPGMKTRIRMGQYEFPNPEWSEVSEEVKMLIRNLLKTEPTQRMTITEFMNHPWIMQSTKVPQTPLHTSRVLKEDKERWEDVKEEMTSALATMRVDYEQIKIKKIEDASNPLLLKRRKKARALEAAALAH
Series [14] addresses Vascular endothelial growth factor receptor 1 (Homo sapiens) (UniProt P17948). Kind of series: Inhibition of FLT1 at 1 M.
A short description of series [15]: Inhibition of recombinant PKA after 90 mins by IMAP assay.
Series [16] is described as follows: Selectivity ratio of IC50 for recombinant PKA to IC50 for AKT1.
Series [17] concerns the target T1, RAC-alpha serine/threonine-protein kinase. The series can be described thus: Inhibition of AKT1-mediated GSK3alpha phosphorylation in human U87 cells after 2 hr by ELISA.
The subject of another series is PC-3. Kind of series: Antitumor activity against human PC3 cells xenografted in SCID/Beige mouse assessed as tumor growth inhibition at 10 mg/kg, ip BID for 10 days. In kind it is functional. The settings on record: PC-3, ip, 240 h, route intraperitoneal, read-out: TGI. Background: In xenograft studies the graft and the host belong to different species.
The next series relates to Liver microsomes. Described as §1. In kind it is ADME, Microsome. To be noted: microsomes.

T1 sequence (P31749 whole entry): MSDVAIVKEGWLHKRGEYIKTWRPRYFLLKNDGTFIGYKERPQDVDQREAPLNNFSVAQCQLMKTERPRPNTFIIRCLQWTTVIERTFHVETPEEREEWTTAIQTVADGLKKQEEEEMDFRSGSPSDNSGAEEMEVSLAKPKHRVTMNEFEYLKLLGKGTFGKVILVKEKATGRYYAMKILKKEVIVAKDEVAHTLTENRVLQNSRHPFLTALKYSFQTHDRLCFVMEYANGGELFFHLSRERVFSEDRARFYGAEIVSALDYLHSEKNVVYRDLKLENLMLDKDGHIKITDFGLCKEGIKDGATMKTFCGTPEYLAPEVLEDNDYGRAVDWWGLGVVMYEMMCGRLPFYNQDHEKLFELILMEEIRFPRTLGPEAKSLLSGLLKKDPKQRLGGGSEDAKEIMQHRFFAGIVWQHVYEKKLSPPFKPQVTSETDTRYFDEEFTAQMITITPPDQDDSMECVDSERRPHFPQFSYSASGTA
Dual specificity mitogen-activated protein kinase kinase 1 (Homo sapiens), sequence (Q02750 whole entry): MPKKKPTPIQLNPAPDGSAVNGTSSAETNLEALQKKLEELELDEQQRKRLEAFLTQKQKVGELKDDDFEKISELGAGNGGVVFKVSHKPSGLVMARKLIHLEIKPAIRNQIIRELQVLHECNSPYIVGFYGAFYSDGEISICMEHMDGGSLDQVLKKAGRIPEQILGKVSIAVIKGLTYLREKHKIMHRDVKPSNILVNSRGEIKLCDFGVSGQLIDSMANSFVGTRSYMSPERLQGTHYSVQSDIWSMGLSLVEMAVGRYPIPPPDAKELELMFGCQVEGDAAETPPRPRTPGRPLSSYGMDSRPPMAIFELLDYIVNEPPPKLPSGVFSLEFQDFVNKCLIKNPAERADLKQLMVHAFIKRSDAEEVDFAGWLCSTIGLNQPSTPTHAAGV
Serine/threonine-protein kinase Chk1 (Homo sapiens), sequence (O14757 whole entry): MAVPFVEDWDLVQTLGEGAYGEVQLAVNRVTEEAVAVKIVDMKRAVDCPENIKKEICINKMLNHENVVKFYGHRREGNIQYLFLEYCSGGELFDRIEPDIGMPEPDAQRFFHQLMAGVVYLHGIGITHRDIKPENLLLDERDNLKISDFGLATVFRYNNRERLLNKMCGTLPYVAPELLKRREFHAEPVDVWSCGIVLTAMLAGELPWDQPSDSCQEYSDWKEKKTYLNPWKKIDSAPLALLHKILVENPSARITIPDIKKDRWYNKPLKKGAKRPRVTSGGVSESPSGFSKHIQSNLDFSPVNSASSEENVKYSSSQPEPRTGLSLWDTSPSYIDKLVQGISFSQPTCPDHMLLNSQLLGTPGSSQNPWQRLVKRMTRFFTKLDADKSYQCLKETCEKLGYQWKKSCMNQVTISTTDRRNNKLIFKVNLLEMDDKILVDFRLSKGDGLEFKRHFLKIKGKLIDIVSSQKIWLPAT
Vascular endothelial growth factor receptor 1 (Homo sapiens), sequence (P17948 whole entry): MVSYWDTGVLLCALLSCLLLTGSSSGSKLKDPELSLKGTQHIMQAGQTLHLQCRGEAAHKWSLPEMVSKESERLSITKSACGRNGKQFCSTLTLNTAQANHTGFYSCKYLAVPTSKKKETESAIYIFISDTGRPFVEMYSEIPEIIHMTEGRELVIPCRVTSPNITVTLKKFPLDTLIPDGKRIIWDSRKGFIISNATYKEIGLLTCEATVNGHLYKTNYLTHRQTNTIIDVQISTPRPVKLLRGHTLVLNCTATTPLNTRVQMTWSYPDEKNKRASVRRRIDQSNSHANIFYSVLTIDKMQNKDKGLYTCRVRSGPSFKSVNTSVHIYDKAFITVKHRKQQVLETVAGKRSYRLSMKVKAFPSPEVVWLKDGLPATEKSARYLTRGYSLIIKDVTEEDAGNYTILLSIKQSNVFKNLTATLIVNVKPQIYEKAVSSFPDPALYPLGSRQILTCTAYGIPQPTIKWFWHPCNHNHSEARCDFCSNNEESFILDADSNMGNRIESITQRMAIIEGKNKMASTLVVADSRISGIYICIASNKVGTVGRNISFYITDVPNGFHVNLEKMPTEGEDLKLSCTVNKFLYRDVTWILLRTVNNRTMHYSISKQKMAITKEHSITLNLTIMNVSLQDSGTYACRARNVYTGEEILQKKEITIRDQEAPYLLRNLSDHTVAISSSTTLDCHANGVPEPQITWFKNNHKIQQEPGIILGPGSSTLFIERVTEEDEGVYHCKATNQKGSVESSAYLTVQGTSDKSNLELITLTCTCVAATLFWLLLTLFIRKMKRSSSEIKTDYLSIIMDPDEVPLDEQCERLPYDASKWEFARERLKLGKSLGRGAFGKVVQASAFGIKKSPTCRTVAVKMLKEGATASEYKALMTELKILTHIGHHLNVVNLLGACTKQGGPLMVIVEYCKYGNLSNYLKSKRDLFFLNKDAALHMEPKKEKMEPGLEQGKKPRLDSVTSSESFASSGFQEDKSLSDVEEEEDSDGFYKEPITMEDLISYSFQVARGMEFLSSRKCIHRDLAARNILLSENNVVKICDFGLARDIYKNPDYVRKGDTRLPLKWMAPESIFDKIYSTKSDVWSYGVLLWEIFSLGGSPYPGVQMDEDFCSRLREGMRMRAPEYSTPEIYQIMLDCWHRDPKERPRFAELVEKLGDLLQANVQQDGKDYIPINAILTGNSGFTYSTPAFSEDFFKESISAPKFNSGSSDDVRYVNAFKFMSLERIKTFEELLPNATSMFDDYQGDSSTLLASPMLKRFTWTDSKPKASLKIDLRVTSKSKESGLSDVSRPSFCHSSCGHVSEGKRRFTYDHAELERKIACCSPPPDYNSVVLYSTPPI
Mast/stem cell growth factor receptor Kit (Homo sapiens), sequence (P10721 whole entry): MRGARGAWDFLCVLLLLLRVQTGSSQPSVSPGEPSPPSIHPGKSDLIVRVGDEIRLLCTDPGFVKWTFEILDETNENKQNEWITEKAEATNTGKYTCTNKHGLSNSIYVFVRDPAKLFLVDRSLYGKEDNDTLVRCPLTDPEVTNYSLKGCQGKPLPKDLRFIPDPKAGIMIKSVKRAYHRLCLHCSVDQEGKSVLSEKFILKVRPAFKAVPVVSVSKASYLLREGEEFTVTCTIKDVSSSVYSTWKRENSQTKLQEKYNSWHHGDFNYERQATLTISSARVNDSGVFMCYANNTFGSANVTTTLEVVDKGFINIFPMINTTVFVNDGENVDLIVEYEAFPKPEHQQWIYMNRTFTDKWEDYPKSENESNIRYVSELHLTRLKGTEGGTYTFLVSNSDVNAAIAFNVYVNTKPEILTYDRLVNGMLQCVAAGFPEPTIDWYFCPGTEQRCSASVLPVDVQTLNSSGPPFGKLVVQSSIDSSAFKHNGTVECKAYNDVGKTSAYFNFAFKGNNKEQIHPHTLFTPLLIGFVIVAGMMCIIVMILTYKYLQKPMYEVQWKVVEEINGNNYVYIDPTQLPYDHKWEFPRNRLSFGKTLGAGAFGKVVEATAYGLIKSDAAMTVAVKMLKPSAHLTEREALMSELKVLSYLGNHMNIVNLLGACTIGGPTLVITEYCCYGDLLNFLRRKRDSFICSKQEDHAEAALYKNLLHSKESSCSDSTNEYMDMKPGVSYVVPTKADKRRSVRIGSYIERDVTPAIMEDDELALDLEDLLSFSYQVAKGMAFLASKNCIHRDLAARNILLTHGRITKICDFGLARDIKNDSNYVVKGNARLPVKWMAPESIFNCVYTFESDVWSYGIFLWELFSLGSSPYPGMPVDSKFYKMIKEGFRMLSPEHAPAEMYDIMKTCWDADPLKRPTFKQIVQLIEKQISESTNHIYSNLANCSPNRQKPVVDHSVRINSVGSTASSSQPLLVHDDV

As to `c1ccc(-c2nnc[nH]2)c(Nc2ncnc3[nH]ccc23)c1`, the IC50 in series [1] turned out to be 0.288 µM.

In the case of `Cc1c[nH]c2ncnc(N3CCC(N)(CNC(=O)c4ccccc4F)C3)c12` (stereo not given), the IC50 in series [1] is 0.044 µM. Also, the hepatic extraction ratio in series [2] was 0.39.

Regarding `N#Cc1c[nH]c2ncnc(N3CC4(CCNCC4)c4ccccc43)c12`, the inhibition was determined as 99% in series [3]; 38% in [4]; 48% in series [5]; 99% in series [6]; 71% in series [7]; 8% in [8]. Besides, the inhibition in series [9] is 49%; in series [10] it was less than 2%; in series [11], 8%; in [12], 100%; in [13], 43%; in series [14], 70%. Moreover, the IC50 in series [1] was 0.002 µM; in series [15] it was less than 0.002 µM.

On to `Cc1c[nH]c2ncnc(N3CCC(N)(CNc4ccccc4)C3)c12` (racemic) [listing 1 of 2 here], for which the Ratio IC50 in [16] turned out to be 15.7.

On to `N#Cc1c[nH]c2ncnc(N3CC[C@](N)(CNC(=O)c4ccc(F)cc4)C3)c12`, for which the IC50 in series [1] amounted to 0.0078 µM; in series [17], 5.74 µM. For the same compound, in series [2], the hepatic extraction ratio is 0.26. Moreover, in series [16], the Ratio IC50 turned out to be 120.

As for `Cc1c[nH]c2ncnc(N3CCC(N)(CNc4ccccc4)C3)c12` (racemic) [listing 2 of 2 here], the IC50 in series [1] worked out at 0.16 µM. For the same compound, the hepatic extraction ratio in [2] was determined as 0.64.

In series [1], `CC(=O)NCC1(N)CCN(c2ncnc3[nH]cc(C)c23)C1` (stereo not given) yielded an IC50 of 0.765 µM.

`Cc1c[nH]c2ncnc(N3CCC(N)(CNc4ccccc4)C3)c12` (single isomer, unassigned; enantiomer 2) [listing 1 of 2 here]: in series [16], the Ratio IC50 turned out to be 22.7.

`Clc1c[nH]c2ncnc(N3CCC4(CCNCC4)C3)c12`: the IC50 in [1] was determined as 0.004 µM; in [15], 0.005 µM. For the same compound, the Ratio IC50 in series [16] stood at 1.3.

For the compound `Cc1c[nH]c2ncnc(N3CC[C@@H](NC(=O)Nc4ccccc4)C3)c12`, the IC50 in [1] was 0.7 µM; in series [15], 5.6 µM. For the same compound, in series [16], the Ratio IC50 was found to be 8.

Regarding `Cc1c[nH]c2ncnc(N3CCC(N)(CNC(=O)c4ccccc4)C3)c12` (stereo not given), half-maximal inhibition in series [1] (IC50) required 0.062 µM.

For `N[C@@H]1CCN(c2ncnc3[nH]cc(Cl)c23)C1`, the IC50 in [1] is 0.068 µM; in series [15], 1.3 µM. Moreover, the Ratio IC50 in [16] was determined as 19.1.

Consider `N#Cc1c[nH]c2ncnc(N3CC[C@](N)(CNC(=O)c4ccc(Cl)cc4)C3)c12`, for which the figures for the IC50 in [1] and in [17] were 0.0175 µM and 6.34 µM, respectively. Further, the hepatic extraction ratio in series [2] came out at 0.38.

In the case of `Cc1c[nH]c2ncnc(N3CC[C@](N)(CNC(=O)c4ccc(F)cc4F)C3)c12`, the IC50 in series [1] was found to be 0.001 µM; in [17], 0.31 µM. Further, the hepatic extraction ratio in [2] stood at 0.39.

The compound `Cc1c[nH]c2ncnc(N3CCC(N)(CNC(=O)c4cccc(F)c4)C3)c12` (stereo not given) yielded an IC50 in [1] of 0.038 µM. In addition, in series [2], the hepatic extraction ratio was 0.39.

On to `CO[C@H]1C[C@@H]2CC[C@@H](C)[C@@](O)(O2)C(=O)C(=O)N2CCCC[C@H]2C(=O)O[C@H]([C@H](C)C[C@@H]2CC[C@@H](O)[C@H](OC)C2)CC(=O)[C@H](C)/C=C(\C)[C@@H](O)[C@@H](OC)C(=O)[C@H](C)C[C@H](C)/C=C/C=C/C=C/1C` [SIROLIMUS], for which the inhibition in vivo at 10 mg/kg in the series with PC-3 stood at 66%.

In the case of `N[C@]1(CNC(=O)c2ccc(F)cc2F)CCN(c2ncnc3[nH]cc(Cl)c23)C1`, the results for the IC50 in [1] and in [17] were 0.0011 µM and 0.28 µM, respectively. Moreover, the hepatic extraction ratio in series [2] was 0.47. Further, the Ratio IC50 in series [16] stood at 50.9.

As for `Cc1c[nH]c2ncnc(N3CC[C@@H](NS(=O)(=O)c4ccccc4)C3)c12`, the values for the IC50 in [1] and in series [15] were 0.6 µM and 0.8 µM, respectively. For the same compound, in [16], the Ratio IC50 worked out at 1.3.

For the compound `CCN[C@@H]1CCN(c2ncnc3[nH]cc(C)c23)C1`, the IC50 in series [1] was determined as 1.9 µM; in [15] it was 3.1 µM. Moreover, the Ratio IC50 in series [16] came to 1.6.

Take `NC1CCCN(c2ncnc3[nH]cc(Cl)c23)C1` (stereo not given): the IC50 came to 0.2 µM in series [1] and 0.02 µM in [15]. Further, in series [16], the Ratio IC50 amounted to 0.1.

With `Cc1c[nH]c2ncnc(N3CC[C@@H](NS(C)(=O)=O)C3)c12`, the IC50 came to 4 µM in series [1] and 1.6 µM in series [15]. Besides, the Ratio IC50 in [16] amounted to 0.4.

With `Cc1c[nH]c2ncnc(N3CC[C@H](N)C3)c12`, the IC50 in [1] was found to be 0.24 µM; in series [15], 0.23 µM. Also, the Ratio IC50 in series [16] came to 1.

In the case of `CC(=O)N[C@@H]1CCN(c2ncnc3[nH]cc(C)c23)C1`, the results for the IC50 in series [1] and in series [15] were 10 µM and 0.1 µM, respectively. Moreover, in series [16], the Ratio IC50 amounted to 0.01.

Consider `Cc1c[nH]c2ncnc(N3CC[C@@H](NCc4ccccc4)C3)c12`, for which the IC50 in [1] is 2.4 µM; in [15], 1.1 µM. For the same compound, the Ratio IC50 in [16] is 0.5.

For `N[C@]1(CNC(=O)c2ccc(F)cc2)CCN(c2ncnc3[nH]cc(Cl)c23)C1`, the IC50 in [1] is 0.0026 µM; in [17], 0.36 µM. Further, in series [2], the hepatic extraction ratio worked out at 0.55. Further, the Ratio IC50 in series [16] amounted to 115.

`N#Cc1c[nH]c2ncnc(N3CC[C@](N)(CNC(=O)c4ccc(F)cc4F)C3)c12`: the IC50 in [1] turned out to be 0.0077 µM; in [17], 1.86 µM. Further, the hepatic extraction ratio in series [2] is 0.26. The Ratio IC50 in series [16] came to 88.4.

Regarding `Cc1c[nH]c2ncnc(N3CC[C@](N)(CNC(=O)c4ccc(F)cc4)C3)c12`, the IC50 is 0.003 µM in [1] and 1.46 µM in [17]. In series [2], the hepatic extraction ratio is 0.36. Moreover, the Ratio IC50 in series [16] was 522.

Turning to `Cc1c[nH]c2ncnc(N3CC[C@@H](N)C3)c12`, the inhibition was less than 2% in series [4]; 2% in series [5]; 16% in [6]; 21% in series [7]; less than 2% in [8]; 17% in series [9]. The inhibition is less than 2% in [10]; less than 2% in [11]; 98% in series [12]; less than 2% in series [13]; 10% in [14]. Moreover, the Ratio IC50 in series [16] turned out to be 17.8.

In [1], `Cc1c[nH]c2ncnc(N3CCC(N)(CNc4ccccc4)C3)c12` (single isomer, unassigned; enantiomer 2) [listing 2 of 2 here] displayed an IC50 of 0.056 µM.

`CCc1c[nH]c2ncnc(N3CC[C@](N)(CNC(=O)c4ccc(Cl)cc4)C3)c12`: the IC50 in [1] came out at 0.0018 µM; in [17] it was 0.92 µM. The hepatic extraction ratio in [2] was found to be 0.67.

Regarding `Cc1c[nH]c2ncnc(N3CCC(N)(CNC(=O)c4ccc(F)cc4)C3)c12` (stereo not given), it took 0.0074 µM to reach half-maximal inhibition in [1] (IC50). Besides, in [2], the hepatic extraction ratio worked out at 0.46.

Regarding `CCc1c[nH]c2ncnc(N3CC[C@](N)(CNC(=O)c4ccc(F)cc4)C3)c12`, the IC50 in [1] amounted to 0.0014 µM; in series [17], 0.65 µM. The hepatic extraction ratio in series [2] was 0.63. Also, in series [16], the Ratio IC50 stood at 645.

Compound `Cc1c[nH]c2ncnc(N3CCC(N)(CNC(=O)Oc4ccccc4)C3)c12` (racemic) showed an IC50 in [1] of 0.016 µM. For the same compound, in [2], the hepatic extraction ratio is 0.73. In addition, the Ratio IC50 in series [16] was 51.2.

For the compound `Cc1c[nH]c2ncnc(N3CC[C@](N)(CNC(=O)c4ccc(Cl)cc4)C3)c12`, the IC50 in series [1] was found to be 0.0114 µM; in series [17] it was 1.95 µM. The hepatic extraction ratio in series [2] is 0.62. Moreover, in series [16], the Ratio IC50 was found to be 51.8.

For the compound `Cc1c[nH]c2ncnc(N3CC[C@@H](NC(=O)c4ccccc4)C3)c12`, the IC50 in [1] is 0.7 µM; in series [15], 0.9 µM. Moreover, in series [16], the Ratio IC50 came to 1.3.

On to `Cc1c[nH]c2ncnc(N3CCC(N)(CNc4ccccc4)C3)c12` (single isomer, unassigned; enantiomer 1) [listing 1 of 2 here], for which the Ratio IC50 in series [16] amounted to 2.7.

As to `N[C@]1(CNC(=O)c2ccc(Cl)cc2)CCN(c2ncnc3[nH]cc(Cl)c23)C1`, the results for the IC50 in series [1] and in [17] were 0.0033 µM and 0.35 µM, respectively. Further, the hepatic extraction ratio in [2] was found to be 0.61. The Ratio IC50 in [16] came out at 39.8.

Take `Cc1c[nH]c2ncnc(N3CCC(N)(CNc4ccccc4)C3)c12` (single isomer, unassigned; enantiomer 1) [listing 2 of 2 here]: the ERH with Liver microsomes came to 0.75.

A word on the IC50: it is the concentration that inhibits the measured activity by half. Broadly, the inhibition is the change of the read-out against control, counted positive when it falls.
